In ChEMBL document CHEMBL5584294, “Adpressins A-G: Oligophenalenone Dimers from Talaromyces adpressus” (J Nat Prod, 2024):

Columns and labels:
T-cell [1] = assay: Immunosuppressive activity in ConA-induced BALB/c mouse T-lymphocytes assessed as Treg cell subsets by measuring CD25positiveFOXP3positive cells at 2.5 uM pretreated with Concanavalin A for 24 hrs followed by compound addition and measured after 48 hrs by flow cytometry analysis (reference value: 5.7%); format: functional
T-cell [2] = assay: Immunosuppressive activity in BALB/c mouse T-lymphocytes assessed as reduction in ConA-induced CD8 subpopulation by measuring CD3negativeCD8negative cells at 2.5 uM pretreated with Concanavalin A for 24 hrs followed by compound addition and measured after 48 hrs by flow cytometry analysis (reference value: 0%); format: functional; design: scale not given: the % may be the effect or the level left
T-cell [3] = assay: Immunosuppressive activity in BALB/c mouse T-lymphocytes assessed as reduction in ConA-induced CD4 subpopulation by measuring CD3positiveCD4negative cells at 2.5 uM pretreated with Concanavalin A for 24 hrs followed by compound addition and measured after 48 hrs by flow cytometry analysis (reference value: 12.2%); format: functional; design: scale not given: the % may be the effect or the level left
T-cell [4] = assay: Immunosuppressive activity in ConA-induced BALB/c mouse T-lymphocytes assessed as Treg cell subsets by measuring CD25negativeFOXP3negative cells at 2.5 uM pretreated with Concanavalin A for 24 hrs followed by compound addition and measured after 48 hrs by flow cytometry analysis (reference value: 27.2%); format: functional
T-cell [5] = assay: Immunosuppressive activity in BALB/c mouse T-lymphocytes assessed as reduction in ConA-induced CD4 subpopulation by measuring CD3negativeCD4negative cells at 5 uM pretreated with Concanavalin A for 24 hrs followed by compound addition and measured after 48 hrs by flow cytometry analysis (reference value: 0%); format: functional; design: scale not given: the % may be the effect or the level left
T-cell [6] = assay: Immunosuppressive activity in BALB/c mouse T-lymphocytes assessed as reduction in ConA-induced CD8 subpopulation by measuring CD3negativeCD8negative cells at 5 uM pretreated with Concanavalin A for 24 hrs followed by compound addition and measured after 48 hrs by flow cytometry analysis (reference value: 0%); format: functional; design: scale not given: the % may be the effect or the level left
T-cell [7] = assay: Immunosuppressive activity in BALB/c mouse T-lymphocytes assessed as reduction in ConA-induced CD4 subpopulation by measuring CD3negativeCD4positive cells at 5 uM pretreated with Concanavalin A for 24 hrs followed by compound addition and measured after 48 hrs by flow cytometry analysis (reference value: 0%); format: functional; design: scale not given: the % may be the effect or the level left
T-cell [8] = assay: Immunosuppressive activity in BALB/c mouse T-lymphocytes assessed as reduction in ConA-induced CD4 subpopulation by measuring CD3negativeCD4negative cells at 2.5 uM pretreated with Concanavalin A for 24 hrs followed by compound addition and measured after 48 hrs by flow cytometry analysis (reference value: 0%); format: functional; design: scale not given: the % may be the effect or the level left
T-cell [9] = assay: Immunosuppressive activity in BALB/c mouse T-lymphocytes assessed as reduction in ConA-induced CD4 subpopulation by measuring CD3positiveCD4positive cells at 2.5 uM pretreated with Concanavalin A for 24 hrs followed by compound addition and measured after 48 hrs by flow cytometry analysis (reference value: 87.8%); format: functional; design: scale not given: the % may be the effect or the level left
T-cell [10] = assay: Immunosuppressive activity in ConA-induced BALB/c mouse T-lymphocytes assessed as Treg cell subsets by measuring CD25positiveFOXP3negative cells at 5 uM pretreated with Concanavalin A for 24 hrs followed by compound addition and measured after 48 hrs by flow cytometry analysis (reference value: 66.9%); format: functional
B-cell line = assay: Immunosuppressive activity in BALB/c mouse B-lymphocytes assessed as inhibition of LPS-induced cell proliferation pretreated with LPS for 24 hrs followed by compound addition and measured after 48 hrs by CCK-8 assay; format: functional, cell-based
T-cell [11] = assay: Immunosuppressive activity in BALB/c mouse T-lymphocytes assessed as reduction in ConA-induced CD8 subpopulation by measuring CD3positiveCD8negative cells at 2.5 uM pretreated with Concanavalin A for 24 hrs followed by compound addition and measured after 48 hrs by flow cytometry analysis (reference value: 70.9%); format: functional; design: scale not given: the % may be the effect or the level left
T-cell [12] = assay: Immunosuppressive activity in BALB/c mouse T-lymphocytes assessed as reduction in ConA-induced CD8 subpopulation by measuring CD3negativeCD8positive cells at 2.5 uM pretreated with Concanavalin A for 24 hrs followed by compound addition and measured after 48 hrs by flow cytometry analysis (reference value: 0%); format: functional; design: scale not given: the % may be the effect or the level left
T-cell [13] = assay: Immunosuppressive activity in BALB/c mouse T-lymphocytes assessed as reduction in ConA-induced CD8 subpopulation by measuring CD3positiveCD8positive cells at 2.5 uM pretreated with Concanavalin A for 24 hrs followed by compound addition and measured after 48 hrs by flow cytometry analysis (reference value: 29.1%); format: functional; design: scale not given: the % may be the effect or the level left
T-cell [14] = assay: Immunosuppressive activity in BALB/c mouse T-lymphocytes assessed as inhibition of ConA-induced cell proliferation pretreated with Concanavalin A for 24 hrs followed by compound addition and measured after 48 hrs by CCK-8 assay; format: functional, cell-based
T-cell [15] = assay: Immunosuppressive activity in BALB/c mouse T-lymphocytes assessed as reduction in ConA-induced CD8 subpopulation by measuring CD3positiveCD8positive cells at 5 uM pretreated with Concanavalin A for 24 hrs followed by compound addition and measured after 48 hrs by flow cytometry analysis (reference value: 29.1%); format: functional; design: scale not given: the % may be the effect or the level left
T-cell [16] = assay: Immunosuppressive activity in ConA-induced BALB/c mouse T-lymphocytes assessed as Treg cell subsets by measuring CD25positiveFOXP3positive cells at 5 uM pretreated with Concanavalin A for 24 hrs followed by compound addition and measured after 48 hrs by flow cytometry analysis (reference value: 5.7%); format: functional
T-cell [17] = assay: Immunosuppressive activity in BALB/c mouse T-lymphocytes assessed as reduction in ConA-induced CD4 subpopulation by measuring CD3positiveCD4negative cells at 5 uM pretreated with Concanavalin A for 24 hrs followed by compound addition and measured after 48 hrs by flow cytometry analysis (reference value: 12.2%); format: functional; design: scale not given: the % may be the effect or the level left
T-cell [18] = assay: Immunosuppressive activity in BALB/c mouse T-lymphocytes assessed as reduction in ConA-induced CD8 subpopulation by measuring CD3positiveCD8negative cells at 5 uM pretreated with Concanavalin A for 24 hrs followed by compound addition and measured after 48 hrs by flow cytometry analysis (reference value: 70.9%); format: functional; design: scale not given: the % may be the effect or the level left
T-cell [19] = assay: Immunosuppressive activity in ConA-induced BALB/c mouse T-lymphocytes assessed as Treg cell subsets by measuring CD25negativeFOXP3positive cells at 2.5 uM pretreated with Concanavalin A for 24 hrs followed by compound addition and measured after 48 hrs by flow cytometry analysis (reference value: 0.2%); format: functional
T-cell [20] = assay: Immunosuppressive activity in ConA-induced BALB/c mouse T-lymphocytes assessed as Treg cell subsets by measuring CD25negativeFOXP3negative cells at 5 uM pretreated with Concanavalin A for 24 hrs followed by compound addition and measured after 48 hrs by flow cytometry analysis (reference value: 27.2%); format: functional
T-cell [21] = assay: Immunosuppressive activity in BALB/c mouse T-lymphocytes assessed as reduction in ConA-induced CD4 subpopulation by measuring CD3positiveCD4positive cells at 5 uM pretreated with Concanavalin A for 24 hrs followed by compound addition and measured after 48 hrs by flow cytometry analysis (reference value: 87.8%); format: functional; design: scale not given: the % may be the effect or the level left
T-cell [22] = assay: Immunosuppressive activity in BALB/c mouse T-lymphocytes assessed as reduction in ConA-induced CD8 subpopulation by measuring CD3negativeCD8positive cells at 5 uM pretreated with Concanavalin A for 24 hrs followed by compound addition and measured after 48 hrs by flow cytometry analysis (reference value: 0%); format: functional; design: scale not given: the % may be the effect or the level left
T-cell [23] = assay: Immunosuppressive activity in BALB/c mouse T-lymphocytes assessed as reduction in ConA-induced CD4 subpopulation by measuring CD3negativeCD4positive cells at 2.5 uM pretreated with Concanavalin A for 24 hrs followed by compound addition and measured after 48 hrs by flow cytometry analysis (reference value: 0%); format: functional; design: scale not given: the % may be the effect or the level left
T-cell [24] = assay: Immunosuppressive activity in ConA-induced BALB/c mouse T-lymphocytes assessed as Treg cell subsets by measuring CD25positiveFOXP3negative cells at 2.5 uM pretreated with Concanavalin A for 24 hrs followed by compound addition and measured after 48 hrs by flow cytometry analysis (reference value: 66.9%); format: functional
T-cell [25] = assay: Immunosuppressive activity in ConA-induced BALB/c mouse T-lymphocytes assessed as Treg cell subsets by measuring CD25negativeFOXP3positive cells at 5 uM pretreated with Concanavalin A for 24 hrs followed by compound addition and measured after 48 hrs by flow cytometry analysis (reference value: 0.2%); format: functional

SMILES: COC(=O)CCCn1cc2c3c(c(C)cc(O)c3c1=O)C1=C(C2=O)[C@]23COC(=O)c4c(O)cc(C)c(c42)C(=O)[C@H]1[C@@H]3OC(C)=O
- Activity (T-cell [1]): 3.5%
- Activity (T-cell [2]): 0%
- Activity (T-cell [3]): 16.8%
- Activity (T-cell [4]): 18.1%
- Activity (T-cell [5]): 0%
- Activity (T-cell [6]): 0%
- Activity (T-cell [7]): 77.7%
- Activity (T-cell [8]): 0%
- Activity (T-cell [9]): 83.2%
- Activity (T-cell [10]): 75.4%
- IC50 (B-cell line): 1600 nM
- Activity (T-cell [11]): 68.6%
- Activity (T-cell [12]): 0%
- Activity (T-cell [13]): 31.4%
- IC50 (T-cell [14]): 2600 nM
- Activity (T-cell [15]): 30.1%
- Activity (T-cell [16]): 3.3%
- Activity (T-cell [17]): 0%
- Activity (T-cell [18]): 69.9%
- Activity (T-cell [19]): 0.1%
- Activity (T-cell [20]): 20.8%
- Activity (T-cell [21]): 22.3%
- Activity (T-cell [22]): 0%
- Activity (T-cell [23]): 0%
- Activity (T-cell [24]): 78.3%
- Activity (T-cell [25]): 0.4%
